These results are taken from ChEMBL document CHEMBL1208728, “Design, synthesis, and structure-activity relationships of pyrazole derivatives as potential FabH inhibitors” (Bioorg Med Chem Lett, 2010).

Each structure is given as a SMILES string. In brackets after ≈: the same amount, converted by molar mass.

Common to all, as to assay type: functional
One assay has as its system Bacillus subtilis. Briefly: Antimicrobial activity against Bacillus subtilis ATCC 6633 by MTT assay.
In the next assay the test system is Staphylococcus aureus. Put plainly: Antimicrobial activity against Staphylococcus aureus ATCC 6538 by MTT assay.
For a further assay, the system named is Enterococcus faecalis. Briefly: Antimicrobial activity against Streptococcus faecalis ATCC 9790 by MTT assay. For orientation: Tetrazolium assays rely on reduction of a dye to a coloured formazan, in cell work by metabolically active cells.
A further assay has as its system Pseudomonas aeruginosa. Put plainly: Antimicrobial activity against Pseudomonas aeruginosa ATCC 13525 by MTT assay.
In a further assay the test system is Escherichia coli. Briefly: Antimicrobial activity against Escherichia coli ATCC 35218 by MTT assay.
The test system of another assay is Enterobacter cloacae. Put plainly: Antimicrobial activity against Enterobacter cloacae ATCC 13047 by MTT assay.

As a reminder, the MIC is the lowest concentration that inhibits growth of the organism. The low end stands for a more susceptible organism, the high end for a less susceptible organism. For the compound `CC(=O)N1N=C(c2ccc(C)c(C)c2)CC1c1ccc(Cl)cc1` (stereo not given), the MIC is greater than 50 µg/mL against Bacillus subtilis; 1.56 µg/mL (≈ 4.78 µM) in the assay with Staphylococcus aureus; 50 µg/mL (≈ 153 µM) in the assay on Enterococcus faecalis; 6.25 µg/mL (≈ 19.1 µM) against Pseudomonas aeruginosa; 12.5 µg/mL (≈ 38.2 µM) in the assay with Escherichia coli; 6.25 µg/mL (≈ 19.1 µM) in the assay with Enterobacter cloacae.
As to `CC(=O)N1N=C(c2ccccc2F)CC1c1ccccc1Cl` (stereo not given), the MIC amounted to 6.25 µg/mL (≈ 19.7 µM) in the assay with Bacillus subtilis; 12.5 µg/mL (≈ 39.5 µM) against Staphylococcus aureus; 25 µg/mL (≈ 78.9 µM) in the assay with Enterococcus faecalis; 12.5 µg/mL (≈ 39.5 µM) in the assay with Pseudomonas aeruginosa; 12.5 µg/mL (≈ 39.5 µM) against Escherichia coli; 12.5 µg/mL (≈ 39.5 µM) against Enterobacter cloacae.
For the compound `CC(=O)N1N=C(c2ccc(Br)cc2)CC1c1ccc(Br)cc1` (stereo not given), the MIC against Bacillus subtilis was 12.5 µg/mL (≈ 29.6 µM); against Staphylococcus aureus it was 3.12 µg/mL (≈ 7.4 µM); against Enterococcus faecalis it was 25 µg/mL (≈ 59.2 µM); against Pseudomonas aeruginosa, 6.25 µg/mL (≈ 14.8 µM); in the assay on Escherichia coli, 25 µg/mL (≈ 59.2 µM); with Enterobacter cloacae, 25 µg/mL (≈ 59.2 µM).
Consider `COc1cc(OC)cc(C2CC(c3ccccc3F)=NN2C(C)=O)c1` (stereo not given), for which the minimal inhibitory concentration (MIC) in the assay with Bacillus subtilis is 6.25 µg/mL (≈ 18.3 µM); against Staphylococcus aureus it was 25 µg/mL (≈ 73 µM); against Enterococcus faecalis it was 12.5 µg/mL (≈ 36.5 µM); in the assay on Pseudomonas aeruginosa it was 12.5 µg/mL (≈ 36.5 µM); in the assay with Escherichia coli it was 12.5 µg/mL (≈ 36.5 µM); against Enterobacter cloacae, greater than 50 µg/mL.
Regarding `COc1ccc(C2CC(c3ccc(Cl)c(Cl)c3)=NN2C(C)=O)cc1` (stereo not given), the MIC was 3.12 µg/mL (≈ 8.6 µM) in the assay with Bacillus subtilis; 25 µg/mL (≈ 68.8 µM) with Staphylococcus aureus; 6.25 µg/mL (≈ 17.2 µM) with Enterococcus faecalis; 12.5 µg/mL (≈ 34.4 µM) in the assay with Pseudomonas aeruginosa; greater than 50 µg/mL against Escherichia coli; 25 µg/mL (≈ 68.8 µM) in the assay with Enterobacter cloacae.
In the case of `COc1ccc(C2=NN(C(C)=O)C(c3cc(OC)cc(OC)c3)C2)cc1` (stereo not given), the MIC worked out at 6.25 µg/mL (≈ 17.6 µM) in the assay on Bacillus subtilis; 12.5 µg/mL (≈ 35.3 µM) against Staphylococcus aureus; 50 µg/mL (≈ 141 µM) with Enterococcus faecalis; 12.5 µg/mL (≈ 35.3 µM) against Pseudomonas aeruginosa; 12.5 µg/mL (≈ 35.3 µM) in the assay on Escherichia coli; 6.25 µg/mL (≈ 17.6 µM) in the assay with Enterobacter cloacae.
As to `CC(=O)N1N=C(c2ccc(Cl)c(Cl)c2)CC1c1ccc(F)cc1` (stereo not given), the MIC was 1.56 µg/mL (≈ 4.45 µM) against Bacillus subtilis; 12.5 µg/mL (≈ 35.6 µM) in the assay on Staphylococcus aureus; 1.56 µg/mL (≈ 4.45 µM) with Enterococcus faecalis; 12.5 µg/mL (≈ 35.6 µM) against Pseudomonas aeruginosa; 12.5 µg/mL (≈ 35.6 µM) against Escherichia coli; 12.5 µg/mL (≈ 35.6 µM) in the assay on Enterobacter cloacae.
Regarding `NC[C@H]1O[C@H](O[C@H]2[C@H](O)[C@@H](O[C@H]3O[C@H](CO)[C@@H](O)[C@H](N)[C@H]3O)[C@H](N)C[C@@H]2N)[C@H](N)[C@@H](O)[C@@H]1O` [BEKANAMYCIN], the MIC in the assay on Bacillus subtilis worked out at 0.39 µg/mL (≈ 0.807 µM); in the assay on Staphylococcus aureus, 3.12 µg/mL (≈ 6.46 µM); against Enterococcus faecalis, 3.12 µg/mL (≈ 6.46 µM); in the assay with Pseudomonas aeruginosa it was 3.12 µg/mL (≈ 6.46 µM); in the assay on Escherichia coli, 1.56 µg/mL (≈ 3.23 µM); in the assay with Enterobacter cloacae it was 1.56 µg/mL (≈ 3.23 µM).
As to `CC(=O)N1N=C(c2ccc(C)c(C)c2)CC1c1ccc(C)cc1` (stereo not given), the MIC in the assay on Bacillus subtilis is 12.5 µg/mL (≈ 40.8 µM); with Staphylococcus aureus it was 3.12 µg/mL (≈ 10.2 µM); in the assay with Enterococcus faecalis, 12.5 µg/mL (≈ 40.8 µM); in the assay with Pseudomonas aeruginosa it was 3.12 µg/mL (≈ 10.2 µM); against Escherichia coli, greater than 50 µg/mL; in the assay on Enterobacter cloacae, greater than 50 µg/mL.
For the compound `COc1ccc(C2CC(c3ccc(Cl)cc3)=NN2C(C)=O)cc1` (stereo not given), the minimum inhibitory concentration (MIC) against Bacillus subtilis was 12.5 µg/mL (≈ 38 µM); with Staphylococcus aureus it was greater than 50 µg/mL; against Enterococcus faecalis, 25 µg/mL (≈ 76 µM); against Pseudomonas aeruginosa, 25 µg/mL (≈ 76 µM); against Escherichia coli, 25 µg/mL (≈ 76 µM); against Enterobacter cloacae, greater than 50 µg/mL.
As for `CC(=O)N1N=C(c2ccc(C)c(C)c2)CC1c1ccccc1` (stereo not given), the minimum inhibitory concentration (MIC) is greater than 50 µg/mL against Bacillus subtilis; 25 µg/mL (≈ 85.5 µM) against Staphylococcus aureus; 25 µg/mL (≈ 85.5 µM) in the assay on Enterococcus faecalis; 12.5 µg/mL (≈ 42.8 µM) in the assay on Pseudomonas aeruginosa; greater than 50 µg/mL against Escherichia coli; greater than 50 µg/mL with Enterobacter cloacae.
On to `CC(=O)N1N=C(c2ccccc2F)CC1c1ccccc1` (stereo not given), for which the MIC in the assay with Bacillus subtilis is 12.5 µg/mL (≈ 44.3 µM); against Staphylococcus aureus, 25 µg/mL (≈ 88.6 µM); against Enterococcus faecalis it was 25 µg/mL (≈ 88.6 µM); in the assay on Pseudomonas aeruginosa, 25 µg/mL (≈ 88.6 µM); against Escherichia coli, greater than 50 µg/mL; against Enterobacter cloacae it was greater than 50 µg/mL.
In the case of `CC(=O)N1N=C(c2ccccc2F)CC1c1ccc(Cl)cc1` (stereo not given), the MIC in the assay with Bacillus subtilis was 12.5 µg/mL (≈ 39.5 µM); against Staphylococcus aureus, greater than 50 µg/mL; with Enterococcus faecalis, 12.5 µg/mL (≈ 39.5 µM); against Pseudomonas aeruginosa, 12.5 µg/mL (≈ 39.5 µM); in the assay with Escherichia coli, 25 µg/mL (≈ 78.9 µM); against Enterobacter cloacae, greater than 50 µg/mL.
On to `COc1ccc(C2CC(c3ccc(C)c(C)c3)=NN2C(C)=O)cc1` (stereo not given), for which the MIC against Bacillus subtilis is 12.5 µg/mL (≈ 38.8 µM); with Staphylococcus aureus it was 3.12 µg/mL (≈ 9.69 µM); with Enterococcus faecalis it was 12.5 µg/mL (≈ 38.8 µM); against Pseudomonas aeruginosa, 3.12 µg/mL (≈ 9.69 µM); with Escherichia coli, 25 µg/mL (≈ 77.5 µM); against Enterobacter cloacae it was 12.5 µg/mL (≈ 38.8 µM).
Consider `CC(=O)N1N=C(c2ccc(Br)cc2)CC1c1ccc(C)cc1` (stereo not given), for which the minimal inhibitory concentration (MIC) stood at 25 µg/mL (≈ 70 µM) in the assay with Bacillus subtilis; 6.25 µg/mL (≈ 17.5 µM) in the assay on Staphylococcus aureus; 50 µg/mL (≈ 140 µM) in the assay with Enterococcus faecalis; 1.56 µg/mL (≈ 4.37 µM) in the assay on Pseudomonas aeruginosa; 25 µg/mL (≈ 70 µM) against Escherichia coli; 6.25 µg/mL (≈ 17.5 µM) in the assay with Enterobacter cloacae.
With `COc1ccc(C2CC(c3ccc(Br)cc3)=NN2C(C)=O)cc1` (stereo not given), the MIC in the assay on Bacillus subtilis stood at 25 µg/mL (≈ 67 µM); in the assay on Staphylococcus aureus it was 12.5 µg/mL (≈ 33.5 µM); with Enterococcus faecalis it was 6.25 µg/mL (≈ 16.7 µM); against Pseudomonas aeruginosa, 1.56 µg/mL (≈ 4.18 µM); in the assay on Escherichia coli, 50 µg/mL (≈ 134 µM); with Enterobacter cloacae, 3.12 µg/mL (≈ 8.37 µM).
Take `CC(=O)N1N=C(c2ccc(Cl)c(Cl)c2)CC1c1ccc(Br)cc1` (stereo not given): the MIC in the assay on Bacillus subtilis is 1.56 µg/mL (≈ 3.79 µM); against Staphylococcus aureus it was greater than 50 µg/mL; against Enterococcus faecalis, 3.12 µg/mL (≈ 7.58 µM); in the assay on Pseudomonas aeruginosa, 25 µg/mL (≈ 60.7 µM); against Escherichia coli, 12.5 µg/mL (≈ 30.3 µM); in the assay with Enterobacter cloacae, 12.5 µg/mL (≈ 30.3 µM).
For `CC(=O)N1N=C(c2ccc(Cl)c(Cl)c2)CC1c1ccccc1Cl` (stereo not given), the MIC with Bacillus subtilis was 3.12 µg/mL (≈ 8.5 µM); against Staphylococcus aureus it was 25 µg/mL (≈ 68 µM); against Enterococcus faecalis, 12.5 µg/mL (≈ 34 µM); with Pseudomonas aeruginosa, 12.5 µg/mL (≈ 34 µM); in the assay on Escherichia coli, 12.5 µg/mL (≈ 34 µM); with Enterobacter cloacae, 25 µg/mL (≈ 68 µM).
For the compound `CC(=O)N1N=C(c2ccc(Br)cc2)CC1c1ccc(Cl)cc1` (stereo not given), the MIC was 25 µg/mL (≈ 66.2 µM) against Bacillus subtilis; 3.12 µg/mL (≈ 8.27 µM) with Staphylococcus aureus; 6.25 µg/mL (≈ 16.5 µM) in the assay with Enterococcus faecalis; 3.12 µg/mL (≈ 8.27 µM) in the assay on Pseudomonas aeruginosa; 25 µg/mL (≈ 66.2 µM) in the assay with Escherichia coli; 12.5 µg/mL (≈ 33.1 µM) in the assay with Enterobacter cloacae.
For `CC(=O)N1N=C(c2ccc(Cl)cc2)CC1c1ccccc1Cl` (stereo not given), the MIC against Bacillus subtilis turned out to be 6.25 µg/mL (≈ 18.8 µM); against Staphylococcus aureus it was 25 µg/mL (≈ 75 µM); in the assay on Enterococcus faecalis, 50 µg/mL (≈ 150 µM); in the assay on Pseudomonas aeruginosa, 12.5 µg/mL (≈ 37.5 µM); in the assay on Escherichia coli it was 12.5 µg/mL (≈ 37.5 µM); with Enterobacter cloacae, 12.5 µg/mL (≈ 37.5 µM).
In the case of `CC(=O)N1N=C(c2ccc(C)c(C)c2)CC1c1ccc(F)cc1` (stereo not given), the MIC against Bacillus subtilis came out at 25 µg/mL (≈ 80.5 µM); against Staphylococcus aureus, 1.56 µg/mL (≈ 5.03 µM); in the assay with Enterococcus faecalis, 12.5 µg/mL (≈ 40.3 µM); in the assay on Pseudomonas aeruginosa it was 6.25 µg/mL (≈ 20.1 µM); against Escherichia coli, 25 µg/mL (≈ 80.5 µM); against Enterobacter cloacae it was 12.5 µg/mL (≈ 40.3 µM).
For `COc1ccc(C2CC(c3ccccc3)=NN2C(C)=O)cc1` (stereo not given), the MIC in the assay on Bacillus subtilis was greater than 50 µg/mL; in the assay with Staphylococcus aureus, 12.5 µg/mL (≈ 42.5 µM); in the assay with Enterococcus faecalis it was 50 µg/mL (≈ 170 µM); in the assay on Pseudomonas aeruginosa, 12.5 µg/mL (≈ 42.5 µM); in the assay with Escherichia coli, greater than 50 µg/mL; in the assay with Enterobacter cloacae, greater than 50 µg/mL.
Take `COc1cc(OC)cc(C2CC(c3ccc(C)c(C)c3)=NN2C(C)=O)c1` (stereo not given): the MIC against Bacillus subtilis was 12.5 µg/mL (≈ 35.5 µM); in the assay with Staphylococcus aureus, greater than 50 µg/mL; against Enterococcus faecalis, 12.5 µg/mL (≈ 35.5 µM); in the assay with Pseudomonas aeruginosa, 3.12 µg/mL (≈ 8.87 µM); against Escherichia coli it was greater than 50 µg/mL; against Enterobacter cloacae, 25 µg/mL (≈ 70.9 µM).
`CC(=O)N1N=C(c2ccc(Br)cc2)CC1c1ccccc1` (stereo not given): the MIC is 50 µg/mL (≈ 146 µM) against Bacillus subtilis; 6.25 µg/mL (≈ 18.2 µM) against Staphylococcus aureus; 25 µg/mL (≈ 72.8 µM) with Enterococcus faecalis; 12.5 µg/mL (≈ 36.4 µM) against Pseudomonas aeruginosa; 12.5 µg/mL (≈ 36.4 µM) against Escherichia coli; greater than 50 µg/mL in the assay with Enterobacter cloacae.
In the case of `CC(=O)N1N=C(c2ccccc2)CC1c1ccc(C)cc1` (stereo not given), the MIC in the assay on Bacillus subtilis is greater than 50 µg/mL; against Staphylococcus aureus, greater than 50 µg/mL; with Enterococcus faecalis it was 6.25 µg/mL (≈ 22.5 µM); in the assay with Pseudomonas aeruginosa, 12.5 µg/mL (≈ 44.9 µM); against Escherichia coli it was 25 µg/mL (≈ 89.8 µM); with Enterobacter cloacae it was 25 µg/mL (≈ 89.8 µM).
